According to the NIST ThermoML archive (doi:10.1021/je050020m):

Experiment: xn = mol fraction of the nth substance listed
Conditions: Liquid, Vibrating tube method

CCCCCCCCCC [decane] + O=C=O
Conditions | mass density [kg/m3]
332.94 K, 23010 kPa, x2 = 0.9663 | 775.39
332.94 K, 23014 kPa, x2 = 0.0551 | 721.3
332.94 K, 24016 kPa, x2 = 0.9663 | 784.64
332.94 K, 24025 kPa, x2 = 0.2369 | 730.17
332.94 K, 24026 kPa, x2 = 0.4536 | 743.58
332.94 K, 24057 kPa, x2 = 0.0551 | 722.11
332.94 K, 25006 kPa, x2 = 0.9663 | 793.1
332.94 K, 25022 kPa, x2 = 0.4536 | 744.71
332.94 K, 25028 kPa, x2 = 0.2369 | 731.08
332.94 K, 25048 kPa, x2 = 0.0551 | 722.92
342.79 K, 13528 kPa, x2 = 0.9663 | 503.61
342.79 K, 14029 kPa, x2 = 0.9663 | 528.33
342.79 K, 15026 kPa, x2 = 0.9663 | 569.49
342.79 K, 16019 kPa, x2 = 0.9663 | 603.24
342.79 K, 17025 kPa, x2 = 0.9663 | 631.6
342.79 K, 18035 kPa, x2 = 0.9663 | 657.54
342.79 K, 19000 kPa, x2 = 0.9663 | 674.01
342.79 K, 20022 kPa, x2 = 0.9663 | 691.29
342.79 K, 21024 kPa, x2 = 0.9663 | 706.16
342.79 K, 22022 kPa, x2 = 0.9663 | 719.34
342.79 K, 23022 kPa, x2 = 0.9663 | 731.24
342.79 K, 24017 kPa, x2 = 0.9663 | 741.98
342.79 K, 25006 kPa, x2 = 0.9663 | 751.96
342.84 K, 13020 kPa, x2 = 0.8114 | 721.51
342.84 K, 14001 kPa, x2 = 0.8114 | 726.31
342.84 K, 15022 kPa, x2 = 0.8114 | 730.92
342.84 K, 16041 kPa, x2 = 0.8114 | 735.26
342.84 K, 17013 kPa, x2 = 0.8114 | 739.14
342.84 K, 18018 kPa, x2 = 0.8114 | 742.96
342.84 K, 19020 kPa, x2 = 0.8114 | 746.57
342.84 K, 20008 kPa, x2 = 0.8114 | 749.98
342.84 K, 21023 kPa, x2 = 0.8114 | 753.35
342.84 K, 22003 kPa, x2 = 0.8114 | 756.46
342.84 K, 23041 kPa, x2 = 0.8114 | 759.67
342.84 K, 24026 kPa, x2 = 0.8114 | 762.58
342.84 K, 25034 kPa, x2 = 0.8114 | 765.48
342.86 K, 2043 kPa, x2 = 0.0551 | 694.82
342.86 K, 3006 kPa, x2 = 0.0551 | 695.92
342.86 K, 4043 kPa, x2 = 0.0551 | 696.93
342.86 K, 5044 kPa, x2 = 0.0551 | 697.98
342.86 K, 6046 kPa, x2 = 0.0551 | 699.02
342.86 K, 6984 kPa, x2 = 0.0551 | 699.98
342.86 K, 8003 kPa, x2 = 0.0551 | 701
342.86 K, 8999 kPa, x2 = 0.0551 | 702.09
342.86 K, 10007 kPa, x2 = 0.0551 | 702.98
342.86 K, 11044 kPa, x2 = 0.0551 | 703.97
342.86 K, 11996 kPa, x2 = 0.0551 | 704.89
342.86 K, 13021 kPa, x2 = 0.0551 | 705.84
342.86 K, 13997 kPa, x2 = 0.0551 | 706.74
342.86 K, 15043 kPa, x2 = 0.0551 | 707.69
342.86 K, 16022 kPa, x2 = 0.0551 | 708.54
342.86 K, 17001 kPa, x2 = 0.0551 | 709.54
342.86 K, 17984 kPa, x2 = 0.0551 | 710.28
342.86 K, 19042 kPa, x2 = 0.0551 | 711.19
342.86 K, 20017 kPa, x2 = 0.0551 | 712.03
342.86 K, 21054 kPa, x2 = 0.0551 | 713.1
342.86 K, 22022 kPa, x2 = 0.0551 | 713.72
342.86 K, 23029 kPa, x2 = 0.0551 | 714.55
342.86 K, 24018 kPa, x2 = 0.0551 | 715.37
342.86 K, 25025 kPa, x2 = 0.0551 | 716.21
342.87 K, 5031 kPa, x2 = 0.2369 | 702.48
342.87 K, 6026 kPa, x2 = 0.2369 | 703.7
342.87 K, 7027 kPa, x2 = 0.4536 | 711.28
342.87 K, 7029 kPa, x2 = 0.2369 | 704.93
342.87 K, 8006 kPa, x2 = 0.2369 | 706.09
342.87 K, 8024 kPa, x2 = 0.4536 | 712.92
342.87 K, 9027 kPa, x2 = 0.4536 | 714.5
342.87 K, 9030 kPa, x2 = 0.2369 | 707.28
342.87 K, 10014 kPa, x2 = 0.4536 | 716.02
342.87 K, 10017 kPa, x2 = 0.2369 | 708.4
342.87 K, 11019 kPa, x2 = 0.2369 | 709.54
342.87 K, 11025 kPa, x2 = 0.4536 | 717.56
342.87 K, 12003 kPa, x2 = 0.2369 | 710.62
342.87 K, 12015 kPa, x2 = 0.4536 | 719.02
342.87 K, 13006 kPa, x2 = 0.4536 | 720.46
342.87 K, 13017 kPa, x2 = 0.2369 | 711.73
342.87 K, 14013 kPa, x2 = 0.2369 | 712.79
342.87 K, 14013 kPa, x2 = 0.4536 | 721.87
342.87 K, 15001 kPa, x2 = 0.4536 | 723.23
342.87 K, 15021 kPa, x2 = 0.2369 | 713.84
342.87 K, 16004 kPa, x2 = 0.2369 | 714.86
342.87 K, 16029 kPa, x2 = 0.4536 | 724.63
342.87 K, 17018 kPa, x2 = 0.2369 | 715.9
342.87 K, 17019 kPa, x2 = 0.4536 | 725.94
342.87 K, 18016 kPa, x2 = 0.2369 | 716.89
342.87 K, 18026 kPa, x2 = 0.4536 | 727.26
342.87 K, 19005 kPa, x2 = 0.2369 | 717.86
342.87 K, 19018 kPa, x2 = 0.4536 | 728.54
342.87 K, 20000 kPa, x2 = 0.2369 | 718.83
342.87 K, 20000 kPa, x2 = 0.4536 | 729.75
342.87 K, 21007 kPa, x2 = 0.4536 | 731.02
342.87 K, 21023 kPa, x2 = 0.2369 | 719.83
342.87 K, 22008 kPa, x2 = 0.2369 | 720.78
342.87 K, 22021 kPa, x2 = 0.4536 | 732.28
342.87 K, 23029 kPa, x2 = 0.2369 | 721.76
342.87 K, 23032 kPa, x2 = 0.4536 | 733.5
342.87 K, 23992 kPa, x2 = 0.2369 | 722.74
342.87 K, 24017 kPa, x2 = 0.4536 | 734.7
342.87 K, 25008 kPa, x2 = 0.2369 | 723.65
342.87 K, 25029 kPa, x2 = 0.4536 | 735.91
352.75 K, 14010 kPa, x2 = 0.9663 | 449.95
352.75 K, 15010 kPa, x2 = 0.9663 | 494.4
352.75 K, 16020 kPa, x2 = 0.9663 | 532.74
352.75 K, 17024 kPa, x2 = 0.9663 | 566.61
352.75 K, 18026 kPa, x2 = 0.9663 | 594.54
352.75 K, 19015 kPa, x2 = 0.9663 | 618.22
352.75 K, 20016 kPa, x2 = 0.9663 | 638.64
352.75 K, 21018 kPa, x2 = 0.9663 | 656.61
352.75 K, 22006 kPa, x2 = 0.9663 | 672.26
352.75 K, 23021 kPa, x2 = 0.9663 | 686.58
352.75 K, 24018 kPa, x2 = 0.9663 | 699.34
352.75 K, 25017 kPa, x2 = 0.9663 | 710.94
352.76 K, 14034 kPa, x2 = 0.8114 | 701.72
352.76 K, 15050 kPa, x2 = 0.8114 | 707.51
352.76 K, 15994 kPa, x2 = 0.8114 | 712.45
352.76 K, 17009 kPa, x2 = 0.8114 | 717.35
352.76 K, 18024 kPa, x2 = 0.8114 | 722.02
352.76 K, 19033 kPa, x2 = 0.8114 | 726.33
352.76 K, 20039 kPa, x2 = 0.8114 | 730.42
352.76 K, 21009 kPa, x2 = 0.8114 | 734.16
352.76 K, 22013 kPa, x2 = 0.8114 | 737.84
352.76 K, 23004 kPa, x2 = 0.8114 | 741.32
352.76 K, 24035 kPa, x2 = 0.8114 | 744.84
352.76 K, 25042 kPa, x2 = 0.8114 | 748.08
352.78 K, 2008 kPa, x2 = 0.0551 | 686.89
352.78 K, 3010 kPa, x2 = 0.0551 | 688.04
352.78 K, 4018 kPa, x2 = 0.0551 | 689.18
352.78 K, 5014 kPa, x2 = 0.0551 | 690.28
352.78 K, 6015 kPa, x2 = 0.0551 | 691.42
352.78 K, 7011 kPa, x2 = 0.0551 | 692.46
352.78 K, 8024 kPa, x2 = 0.0551 | 693.62
352.78 K, 8988 kPa, x2 = 0.0551 | 694.56
352.78 K, 10035 kPa, x2 = 0.0551 | 695.65
352.78 K, 11021 kPa, x2 = 0.0551 | 696.68
